These results are taken from patent US20130072472A1, “N[…] ANSOLVATES” (DemeRx, Inc., priority 2011, published 2013).

Where a name gives a salt, the structure may show the parent alone. Some results are limits rather than exact numbers.

What all share (format): physicochemical
A short description of series [1]: Thermogravimetric analysis (TGA). The following applies: for TGA sharp weight loss / onset of probable decomposition: TGA thermogram. The procedure:
Thermogravimetric analyses were performed using a TA Instruments Q5000 IR thermogravimetric analyzer. Temperature calibration was performed using nickel and Alumel™ Each sample was placed in an aluminum pan. The sample was hermetically sealed, the lid pierced, then inserted into the TO furnace. The furnace was heated under nitrogen.

Series [2] is described as follows: Approximate aqueous solubility of noribogaine salt forms. The following applies: water.
A short description of series [3]: Dynamic vapor sorption (DVS). The following applies: for State of the solids after DVS sorption/desorption: post-DVS, 5 to 95 to 5% RH. The procedure:
Dynamic vapor sorption (DVS) data were collected on a VTI SOA-100 Vapor Sorption Analyzer. NaCl and PVP were used as calibration standards. Samples were not dried prior to analysis. Sorption and desorption data were collected over a range from 5 to 95% RH at 10% RH increments under a nitrogen purge. The equilibrium criterion used for analysis was less than 0.0100% weight change in 5 minutes with a maximum equilibration time of 3 hours. Data were not corrected for the initial moisture content of the samples.

A short description of series [4]: Drying of solvated forms, gravimetric weight loss and XRPD. The following applies: for gravimetric weight loss: hydrochloride. The procedure: Two other moisture absorbing, unstable, polymorphs of noribogaine hydrochloride, Forms F and G, which had mutually similar XRPD patterns were also identified. Form G was isolated from a slurry of Form A in MeOH at ambient temperature. Material G likely contains MeOH and water, and Form F (or Form II) is likely hydrated. […] A sharp weight loss at ˜312° C. indicated likely decomposition. Both Forms G and F are contemplated to readily pick up moisture from the atmosphere.

Series [5] is described as follows: Polymorphic conversion of solvated form on stirring in EtOH/water or heating. The text has this: Such a desolvation is surprising, given that it occurs upon stirring in another solvent, which comprises hydroxy groups and alkyl moieties as in MeOH. As described above, form F is a solvated polymorph that is obtained from MeOH.
Series [6] can be described thus: Approximate ambient-temperature solubility, solvent addition method. The conditions noted are these: thermodynamic from solid. On the procedure: The approximate ambient-temperature solubilities of noribogaine hydrochloride Form A were measured in a variety of solvents and solvent mixtures using the solvent addition method (Table 2).
The solubility of noribogaine hydrochloride ansolvate were determined as tabulated below.

For `CC[C@H]1CC2C[C@H]3c4[nH]c5ccc(O)cc5c4CCN(C2)C13` [Sulfate, Form D, noribogaine sulfate ansolvate], in series [1], the “TGA sharp weight loss / onset of probable decomposition” value (shortened to “TGA sharp weight loss / onset”) is “approximately 274 °C”. Also, the TGA weight loss in series [1] (from approximately 160 to 245° C.) was found to be 4.9 wt %. Further, the “Approx. Aqueous Solubility” value in series [2] is greater than 80 mg/mL. Also, the DVS weight gain result is “approximately 26 wt %” in series [3] (between 75 and 95% RH); “about 0.7 wt %” in series [3] (up to 75% RH). Moreover, in series [3] (listed as sulfate salt), the “State of the solids after DVS sorption/desorption” value was “deliquesced”.
Consider `CC[C@H]1CC2C[C@H]3c4[nH]c5ccc(O)cc5c4CCN(C2)C13` [Tosylate, Form B, tosylate salt of noribogaine], for which, in series [2], the “Approx. Aqueous Solubility” value is recorded as 3 mg/mL.
On to `CC[C@H]1CC2C[C@H]3c4[nH]c5ccc(O)cc5c4CCN(C2)C13` [Phosphate, Form C, noribogaine phosphate], for which, in series [1], the “TGA sharp weight loss / onset” value stood at 241 °C. Further, in series [1] (from 30 to 140° C.), the TGA weight loss result is “approximately 1.6%”. Besides, the “Approx. Aqueous Solubility” value in series [2] worked out at 23 mg/mL. For the same compound, the DVS weight gain entry in series [3] (between 5 and 95% RH) is “approximately 3.3 wt %”. The “DVS weight loss upon equilibration” value in series [3] (equilibration to 5% RH) is given as “approximately 1 wt %”. For the same compound, the “State of the solids after DVS sorption/desorption” value in series [3] is “remained Form C”.
For `CC[C@H]1CC2C[C@H]3c4[nH]c5ccc(O)cc5c4CCN(C2)C13` [Form G, noribogaine hydrochloride], the “Polymorphic form after weight loss, by XRPD” value in series [4] is “converted to Form A”. The gravimetric weight loss in series [4] (listed as material G) was 7.95%.
Consider `CC[C@H]1CC2C[C@H]3c4[nH]c5ccc(O)cc5c4CCN(C2)C13` [Form F, noribogaine hydrochloride], for which the “TGA sharp weight loss / onset” value in series [1] (hydrochloride) was roughly 312 °C. In addition, the gravimetric weight loss in series [4] was 4.1%. For the same compound, the “Polymorphic form change upon heating” value in series [5] (heating) is “converts to the ansolvate form A”. Also, the “Polymorphic form change upon stirring” value in series [5] (stirring in 9:1 ethyl alcohol and water) is “converted to the ansolvate form A”.
As a reminder, the solubility is the dissolved amount per volume that the medium holds. For `CC[C@H]1CC2C[C@H]3c4[nH]c5ccc(O)cc5c4CCN(C2)C13` [HCl, Form A, noribogaine hydrochloride], in series [1] (listed as Form A, hydrochloride), the “TGA sharp weight loss / onset” value is roughly 316 °C. Moreover, the TGA weight loss entry in series [1] (prior to ~316° C.) is “negligible weight loss”. The “Approx. Aqueous Solubility” value in series [2] (hydrochloride) was in the range of 1 to 4 mg/mL. In addition, in series [3] (between 5 and 95% relative humidity), the DVS weight gain/loss entry was “approximately 0.03%”. The solubility was 9000 µg/mL in series [6] (aqueous with cosolvent or surfactant or cyclodextrin, ACN:water 80:20, ambient temperature); 11000 µg/mL in series [6] (aqueous with cosolvent or surfactant or cyclodextrin, Acetone:water 50:50, ambient temperature); 10000 µg/mL in series [6] (aqueous with cosolvent or surfactant or cyclodextrin, TFE:water 50:50, ambient temperature); less than 1000 µg/mL in series [6] (organic solvent or mixture, Acetone, ambient temperature); less than 1000 µg/mL in series [6] (organic solvent or mixture, CAN, ambient temperature); less than 1000 µg/mL in series [6] (organic solvent or mixture, EtOAc, ambient temperature). In addition, the solubility was less than 1000 µg/mL in series [6] (organic solvent or mixture, EtOH, ambient temperature); 10000 µg/mL in series [6] (organic solvent or mixture, HFIPA, ambient temperature); 2000 µg/mL in series [6] (organic solvent or mixture, MeOH, ambient temperature); 1000 µg/mL in series [6] (organic solvent or mixture, MeOH:THF 50:50, ambient temperature); 4000 µg/mL in series [6] (organic solvent or mixture, TFE, ambient temperature); less than 1000 µg/mL in series [6] (organic solvent or mixture, THF, ambient temperature). In addition, the solubility is less than 1000 µg/mL in series [6] (organic solvent or mixture, chloroform, ambient temperature); less than 1000 µg/mL in series [6] (organic solvent or mixture, chloroform:EtOH 50:50, ambient temperature); less than 1000 µg/mL in series [6] (organic solvent or mixture, p-dioxane, ambient temperature); less than 4000 µg/mL in series [6] (Water, added all at once, stirred ~24 hours).
